Read-outs that look alike come from different tables or passages of the source.
How the values were obtained:
[1] = target: ER in MCF-7 cells (Homo sapiens (Human), UniProt P03372); assay: In-cell Western (ICW) ER degradation assay in MCF-7 cells; type: cell-based; settings: for DC50: MCF-7, ER degradation, read-out: MCF7 DC50
[2] = system: MCF-7 cells; assay: CellTiter-Glo (CTG) cell proliferation assay in MCF-7 cells; type: cell-based; settings: Homo sapiens, MCF7, 144 h, MCF-7 cell proliferation, Day 6
Text: CellTiter-Glo® (CTG) Assays in MCF-7 and T47D Cell Lines.
In vitro Assay: MCF-7 and T47D CTG assay

[3] = MCF7, read-out: MCF7 Dmax, MCF-7, maximal ER degradation, 16 hrs treatment

Sequence of ER in MCF-7 cells (P03372 whole entry): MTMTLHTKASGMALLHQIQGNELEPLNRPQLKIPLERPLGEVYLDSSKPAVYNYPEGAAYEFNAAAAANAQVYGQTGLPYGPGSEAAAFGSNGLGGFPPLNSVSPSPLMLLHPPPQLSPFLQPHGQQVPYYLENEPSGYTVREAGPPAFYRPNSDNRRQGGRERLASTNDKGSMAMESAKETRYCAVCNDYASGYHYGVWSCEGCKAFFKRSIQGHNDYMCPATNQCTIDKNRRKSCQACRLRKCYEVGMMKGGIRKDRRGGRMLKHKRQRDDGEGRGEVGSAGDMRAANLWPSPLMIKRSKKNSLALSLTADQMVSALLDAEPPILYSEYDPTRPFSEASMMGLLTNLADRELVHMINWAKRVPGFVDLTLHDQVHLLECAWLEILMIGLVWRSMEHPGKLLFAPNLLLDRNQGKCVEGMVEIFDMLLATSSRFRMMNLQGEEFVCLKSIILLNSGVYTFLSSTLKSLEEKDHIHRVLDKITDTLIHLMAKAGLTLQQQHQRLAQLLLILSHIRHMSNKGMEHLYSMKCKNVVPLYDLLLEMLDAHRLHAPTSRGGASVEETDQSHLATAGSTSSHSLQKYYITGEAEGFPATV

Dmax ([1]; MCF7, MCF-7, maximal ER degradation, 16 hrs treatment, read-out: MCF7 Dmax) [%]	Compound	Dmax [1, 3] [%]	DC50 ([1]; 16 hrs treatment) [nM]	IC50 [2] [nM]
–	O=C1CC[C@H](N2Cc3c(ccc4c3OCC43CCN(CC4CCC5(CC4)CN(c4ccc([C@@H]6c7ccc(O)cc7CC[C@@H]6c6ccccc6)cc4)C5)CC3)C2=O)C(=O)N1 [Compound A177, (S)-3-(1′-((2-(4-((1R,2S)-6-hydroxy-2-phenyl-1,2,3,4-tetra-hydronaphthalen-1-yl)phenyl)-2-azaspiro[3.5]nonan-7-yl)-methyl)-6-oxo-6,8-dihydro-2H,7H-spiro[furo[2,3-e]iso-indole-3,4′-piperidin]-7-yl)-piperidine-2,6-dione]	> 75	< 1	> 100
–	O=C1CC[C@H](N2Cc3cc4c(cc3C2=O)OCC42CCN(CC3CCC4(CC3)CN(c3ccc([C@@H]5c6ccc(O)cc6CC[C@@H]5c5ccccc5)cc3)C4)CC2)C(=O)N1 [Compound A178, (S)-3-(1′-((2-(4-((1R,2S)-6-hydroxy-2-phenyl-1,2,3,4-tetra-hydronaphthalen-1-yl)phenyl)-2-azaspiro[3.5]nonan-7-yl)-methyl)-7-oxo-5,7-dihydro-2H, 6H-spiro[furo[2,3-f]isoindole-3,4′-piperidin]-6-yl)piperidine-2,6-dione]	> 75	< 1	> 100
–	COc1cc(N2CC3(CCC(CN4CCC5(CC4)COc4nc(C(=O)N[C@H]6CCC(=O)NC6=O)ccc45)CC3)C2)c(F)cc1[C@@H]1c2ccc(O)cc2CC[C@@H]1c1ccccc1 [Compound A179, N-((S)-2,6-dioxopiperidin-3-yl)-1′-((2-(2-fluoro-4-((1S,2S)-6-hydroxy-2-phenyl-1,2,3,4-tetrahydronaphthalen-1-yl)-5-methoxyphenyl)-2-azaspiro [3.5]nonan-7-yl)methyl)-2H-spiro[furo[2,3-b]pyridine-3,4′-piperidine]-6-carboxamide]	> 75	< 1	> 100
> 75	COc1cc(N2CCC(CCN3CCN4c5ccc6c(c5OC[C@H]4C3)CN([C@H]3CCC(=O)NC3=O)C6=O)CC2)c(F)cc1[C@@H]1c2ccc(O)cc2CC[C@@H]1c1ccccc1 [Compound A180, (S)-3-((R)-7-(2-(1-(2-fluoro-4-((1S,2S)-6-hydroxy-2-phenyl-1,2,3,4-tetrahydronaphthalen-1-yl)-5-methoxyphenyl)piper-idin-4-yl)ethyl)-1-oxo-1,3,5,5a, 6,7,8,9-octahydro-2H-pyrazino [1′,2′:4,5][1,4]oxazino[2,3-e]isoindol-2-yl)piperidine-2,6-dione]	–	< 1	> 100
–	O=C1CC[C@H](N2Cc3c(ccc4c3OCC43CCN(CC4CC5(CCN(c6ccc([C@@H]7c8ccc(O)cc8CC[C@@H]7c7ccccc7)cc6)CC5)C4)CC3)C2=O)C(=O)N1 [Compound A181, (S)-3-(1′-((7-(4-((1R,2S)-6-hydroxy-2-phenyl-1,2,3,4-tetra-hydronaphthalen-1-yl)phenyl)-7-azaspiro[3.5]nonan-2-yl)-methyl)-6-oxo-6,8-dihydro-2H, 7H-spiro[furo[2,3-e]isoindole-3,4′-piperidin]-7-yl)piperidine-2,6-dione]	> 75	< 1	> 100
–	COc1cc(N2CC3(CC(CN4CCC5(CC4)COc4c5ccc5c4CN([C@H]4CCC(=O)NC4=O)C5=O)C3)C2)c(F)cc1[C@@H]1c2ccc(O)cc2CC[C@@H]1c1ccccc1 [Compound A184, (S)-3-(1′-((2-(2-fluoro-4-((1S, 2S)-6-hydroxy-2-phenyl-1,2,3,4-tetrahydronaphthalen-1-yl)-5-methoxyphenyl)-2-aza-spiro[3.3]heptan-6-yl)methyl)-6-oxo-6,8-dihydro-2H,7H-spiro[furo[2,3-e]isoindole-3,4′-piperidin]-7-yl)piperidine-2,6-dione]	50 to 75	–	> 100
–	COc1cc(N2CCC(CCN3CCC4(CC3)COc3c4cc(C)c4c3CN([C@H]3CCC(=O)NC3=O)C4=O)CC2)c(F)cc1[C@@H]1c2ccc(O)cc2CC[C@@H]1c1ccccc1 [Compound A213, (S)-3-(1′-(2-(1-(2-fluoro-4-((1S,2S)-6-hydroxy-2-phenyl-1,2,3,4-tetrahydronaphthalen-1-yl)-5-methoxyphenyl)piper-idin-4-yl)ethyl)-5-methyl-6-oxo-6,8-dihydro-2H,7H-spiro [furo[2,3-e]isoindole-3,4′-piperidin]-7-yl)piperidine-2,6-dione]	–	–	< 10
–	Cc1cc2c(c3c1C(=O)N([C@H]1CCC(=O)NC1=O)C3)OCC21CCN(CC2CC3(CCN(c4ccc([C@@H]5c6ccc(O)cc6CC[C@@H]5c5ccccc5)cc4)CC3)C2)CC1 [Compound A214, (S)-3-(1′-((7-(4-((1R,2S)-6-hydroxy-2-phenyl-1,2,3,4-tetra-hydronaphthalen-1-yl)phenyl)-7-azaspiro[3.5]nonan-2-yl)-methyl)-5-methyl-6-oxo-6,8-dihydro-2H,7H-spiro[furo[2,3-c]isoindolc-3,4′-pipcridin]-7-yl)piperidine-2,6-dione]	–	–	< 10
–	COc1cc(N2CCC(CCN3CCC4(CC3)COc3c4cc4c(c3Cl)C(=O)N([C@H]3CCC(=O)NC3=O)C4)CC2)c(F)cc1[C@@H]1c2ccc(O)cc2CC[C@@H]1c1ccccc1 [Compound A217, (S)-3-(8-chloro-1′-(2-(1-(2-fluoro-4-((1S,2S)-6-hydroxy-2-phenyl-1,2,3,4-tetrahydronaph-thalen-1-yl)-5-methoxyphenyl)-piperidin-4-yl)ethyl)-7-oxo-5,7-dihydro-2H,6H-spiro[furo[2,3-f]isoindole-3,4′-piperidin]-6-yl)piperidine-2,6-dione]	–	–	< 10
–	COc1cc(N2CCC3(CC2)CC(CN2CCC4(CC2)COc2c4cc4c(c2C)C(=O)N([C@@H]2CCC(=O)NC2=O)C4)C3)c(F)cc1[C@@H]1c2ccc(O)cc2CC[C@@H]1c1ccccc1 [Compound A219, (R)-3-(1′-((7-(2-fluoro-4-((1S, 2S)-6-hydroxy-2-phenyl-1,2,3,4-tetrahydronaphthalen-1-yl)-5-methoxyphenyl)-7-aza-spiro[3.5]nonan-2-yl)methyl)-8-methyl-7-oxo-5,7-dihydro-2H,6H-spiro[furo[2,3-f]iso-indole-3,4′-piperidin]-6-yl)-piperidine-2,6-dione]	–	–	< 10
–	COc1cc(N2CCC3(CC2)CC(CN2CCC4(CC2)COc2c4cc4c(c2C)C(=O)N([C@H]2CCC(=O)NC2=O)C4)C3)c(F)cc1[C@@H]1c2ccc(O)cc2CC[C@@H]1c1ccccc1 [Compound A220, (S)-3-(1′-((7-(2-fluoro-4-((1S,2S)-6-hydroxy-2-phenyl-1,2,3,4-tetrahydronaphthalen-1-yl)-5-methoxyphenyl)-7-aza-spiro[3.5]nonan-2-yl)methyl)-8-methyl-7-oxo-5,7-dihydro-2H,6H-spiro[furo[2,3-f]iso-indole-3,4′-piperidin]-6-yl)-piperidine-2,6-dione]	–	–	< 10
–	COc1cc(N2CCC3(CC2)CC(CN2CCN4c5cc(Cl)c6c(c5OC[C@H]4C2)CN([C@H]2CCC(=O)NC2=O)C6=O)C3)c(F)cc1[C@@H]1c2ccc(O)cc2CC[C@@H]1c1ccccc1 [Compound A221, (S)-3-((R)-12-chloro-7-((7-(2-fluoro-4-((1S,2S)-6-hydroxy-2-phenyl-1,2,3,4-tetrahydronaph-thalen-1-yl)-5-methoxyphenyl)-7-azaspiro[3.5]nonan-2-yl)-methyl)-1-oxo-1,3,5,5a,6,7,8,9-octahydro-2H-pyrazino[1′,2′: 4,5][1,4]oxazino[2,3-e]isoindol-2-yl)piperidine-2,6-dione]	–	–	> 100
–	COc1cc(N2CCC3(CC2)CC(CN2CCC4(CC2)COc2c4cc(OC)c4c2CN([C@@H]2CCC(=O)NC2=O)C4=O)C3)c(F)cc1[C@@H]1c2ccc(O)cc2CC[C@@H]1c1ccccc1 [Compound A223, (R)-3-(1′-((7-(2-fluoro-4-((1S,2S)-6-hydroxy-2-phenyl-1,2,3,4-tetrahydronaphthalen-1-yl)-5-methoxyphenyl)-7-azaspiro[3.5]nonan-2-yl)methyl)-5-methoxy-6-oxo-6,8-dihydro-2H,7H-spiro[furo[2,3-e]isoindole-3,4′-piperidin]-7-yl)piperidine-2,6-dione]	–	–	< 10
–	COc1cc(N2CCC(CCN3CCN4c5cc(Cl)c6c(c5OC[C@H]4C3)CN([C@H]3CCC(=O)NC3=O)C6=O)CC2)c(F)cc1[C@@H]1c2ccc(O)cc2CC[C@@H]1c1ccccc1 [Compound A224, (S)-3-((R)-12-chloro-7-(2-(1-(2-fluoro-4-((1S,2S)-6-hydroxy-2-phenyl-1,2,3,4-tetrahydronaphthalen-1-yl)-5-methoxyphenyl)piperidin-4-yl)ethyl)-1-oxo-1,3,5,5a,6,7,8,9-octahydro-2H-pyrazino[1′,2′: 4,5][1,4]oxazino[2,3-e]isoindol-2-yl)piperidine-2,6-dione]	–	–	10 to 100
–	COc1cc(N2CCC(CCN3CCC4(CC3)COc3c4cc(OC)c4c3CN([C@@H]3CCC(=O)NC3=O)C4=O)CC2)c(F)cc1[C@@H]1c2ccc(O)cc2CC[C@@H]1c1ccccc1 [Compound A225, (R)-3-(1′-(2-(1-(2-fluoro-4-((1S,2S)-6-hydroxy-2-phenyl-1,2,3,4-tetrahydronaphthalen-1-yl)-5-methoxyphenyl)piperidin-4-yl)ethyl)-5-methoxy-6-oxo-6,8-dihydro-2H,7H-spiro[furo[2,3-e]isoindole-3,4′-piperidin]-7-yl)piperidine-2,6-dione]	–	–	< 10
–	COc1cc(N2CCC3(CC2)CC(CN2CCN4c5cc(C)c6c(c5OC[C@H]4C2)CN([C@H]2CCC(=O)NC2=O)C6=O)C3)c(F)cc1[C@@H]1c2ccc(O)cc2CC[C@@H]1c1ccccc1 [Compound A228, (S)-3-((R)-7-((7-(2-fluoro-4-((1S,2S)-6-hydroxy-2-phenyl-1,2,3,4-tetrahydronaphthalen-1-yl)-5-methoxyphenyl)-7-aza-spiro[3.5]nonan-2-yl)methyl)-12-methyl-1-oxo-1,3,5,5a,6,7,8,9-octahydro-2H-pyrazino [1′,2′:4,5][1,4]oxazino[2,3-e]isoindol-2-yl)piperidine-2,6-dione]	–	–	10 to 100

— patent publication US20260028354A1, “TETRAHYDRONAPHTHALENE DERIVATIVES AS ESTROGEN RECEPTOR DEGRADERS” (REGENT OF THE UNIVERSITY OF MICHIGAN, priority 2022, published 2026)
